The values below come from patent US9446053B2, “Method for enhancing the secretion of GLP-1 using bitter compounds” (priority 2013, dated 2016).

Experiment [1] relates to intestinal endocrine cell line STC-1. The experiment can be described thus: Bitter compound stimulating the secretion of GLP-1 of STC-1 cells (GLP-1 ELISA normalised to MTT cell viability, vehicle = 1). Format: cell-based, mouse. Conditions: for fold induction at 1000 µM: 1 mM; for secretion of GLP-1, fold comparing to the vehicle group: p<0.05. As to the method: The embodiment of the present invention use a proglucagon-expression cell line STC-1 for study. The STC-1 cells are divided into the experimental groups and the control group. […] The secretion of GLP-1 is obtained by calculating the data gathered from the experiment using the standard curve after treating intestinal endocrine cell line STC-1 with different bitter compounds. Cell viability is measured by MTT assay after treating intestinal endocrine cell line STC-1 with different bitter compounds. The ratio of the amount of GLP-1 secreted to the cell viability in each experiment is the fold of that given bitter compound stimulating the secretion of GLP-1 of the intestinal endocrine cell line STC-1. […] Moreover, co-administering specific bitter compound, bitter taste receptor inhibitor or phospholipase C (PLC) inhibitor can further determine the bitter taste receptor corresponded to the bitter compound. The above mentioned testing methods are explained in detailed as follow:
For the embodiment of the ability of bitter compound stimulating secretion of GLP-1 of the intestinal endocrine cell line STC-1, the experiment procedure of the stimulation of GLP-1 secretion is referred in FIG. 1.
(§1) S3: The STC-1 cell line was treated by a bitter compound.
(§2) S4: Supernatant was collected via centrifugation and the remaining growth medium was removed after 1 hour and the amount of cell was measured by MTT assay.
S5: Supernatant from S4 was centrifuged again at 500×g for 5 minutes. After eliminating cell debris, the resulting supernatant was collected and stored at −80° C. for the analysis of GLP-1 secretion using commercial kit Millipore EGLP-35K. The sensitivity of the kit is between 2-100 pM. […] The result was shown in the amount of GLP-1 secreted per unit cell. To prevent over-discrepant results between batches and for the ease of statistic, each vehicle group was taken as 1, which is the comparison of result of each sample of that experiment.
(§3) Before measuring the amount of GLP-1 secreted, all reagents were placed on ice until fully dissolved. 10× washing buffer concentrate were diluted 10 times using distilled water; STC-1 cell line was dissolved using 1 mL distilled water and was diluted 200 times using phosphate buffered saline (PBS). 300 μL/well of 1× wash buffer were added and were placed for 5 minutes at room temperature then were poured out. 200 μL/well of assay buffer were added to NSB, while 100 μL/well of assay buffer were added to the remaining wells. 100 μL of Standards, QC or STC-1 cell line were then added to the wells accordingly, and then the 96-well plate was shaken moderately for an even mixture within each well. Plates were then being sealed allowing reaction to take place at 4° C. for 20-24 hours. Plates were then washed 5 times by 300 μL/well of 1× wash buffer and placed for 5 minutes. 200 μL/well of detection conjugate was added allowing reactions to take place at room temperature for 2 hours. It was then washed 3 times by 300 μL/well of 1× wash buffer. 200 μL/well of diluted STC-1 cell line was added allowing reaction to take place at room temperature and light-free environment for approximately 20 minutes. 50 μL/well of stop solution was added to stop the reaction at room temperature and light-free environment for 5 minutes. Finally, the concentration of GLP-1 was calculated using the data obtained and the standard curve.
Principle of MTT assay: Methylthiazolyldiphenyl-tetrazolium bromide (MTT), or 3-(4,5-cimethylthiazol-2-yl)-2,5-diphenyl tetrazolium bromide, is a yellow dye which can be reduced by dehydrogenase of mitochondria in living cells, forming an insoluble purple crystal, formazan. Thus, it is often used for the screening of the effect of materials upon the cell growth and proliferation.

Experiment [2] has the same test system. Put plainly: GLP-1 secretion of STC-1 cells when allyl isothiocyanate and bitter taste receptor inhibitor probenecid are co-administered. Format: cell-based, mouse.
Description: The embodiment of the present invention use a proglucagon-expression cell line STC-1 for study. The STC-1 cells are divided into the experimental groups and the control group. The control groups are also called vehicle groups, which is the comparison of result of each experiment taken as 1. The secretion of GLP-1 is obtained by calculating the data gathered from the experiment using the standard curve after treating intestinal endocrine cell line STC-1 with different bitter compounds. Cell viability is measured by MTT assay after treating intestinal endocrine cell line STC-1 with different bitter compounds. The ratio of the amount of GLP-1 secreted to the cell viability in each experiment is the fold of that given bitter compound stimulating the secretion of GLP-1 of the intestinal endocrine cell line STC-1. By comparing experimental groups and vehicle groups, the difference between different bitter compounds in terms of their ability to stimulate the secretion of GLP-1 of the intestinal endocrine cell line STC-1 can be observed. Moreover, co-administering specific bitter compound, bitter taste receptor inhibitor or phospholipase C (PLC) inhibitor can further determine the bitter taste receptor corresponded to the bitter compound. The above mentioned testing methods are explained in detailed as follow:
S1: 6.39×10^4 cells were planted with 10% FBS DMEM (high glucose) in 48-well culture tray and were incubated for 48 hours.
S2: After 48 hours when the cell growth reached 85%, culture medium was changed into 10% FBS DMEM (low glucose) for a 3-hour starvation and then followed by the treatment of 0.2% BSA DEME (low glucose).
as §1, §2
S5: Supernatant from S4 was centrifuged again at 500×g for 5 minutes. After eliminating cell debris, the resulting supernatant was collected and stored at −80° C. for the analysis of GLP-1 secretion using commercial kit Millipore EGLP-35K. The sensitivity of the kit is between 2-100 pM. The amount of GLP-1 secreted of each vehicle group is between 50-150 pM according to the batch, therefore, it is advised that the supernatant being diluted 4 times before the analysis. The result was shown in the amount of GLP-1 secreted per unit cell. To prevent over-discrepant results between batches and for the ease of statistic, each vehicle group was taken as 1, which is the comparison of result of each sample of that experiment.
as §3, with “Finally, the concentration of GLP-1 was calculated using the data obtained and the standard curve.” left out

Where [3] appears, read: Mus musculus, STC-1 cells, 1 hour treatment, vehicle = 1, read-out: Fold (largest fold of GLP-1 secretion vs vehicle group).
[4] abbreviates: Mus musculus, STC-1, 1 h, read-out: Fold (largest fold of GLP-1 secretion vs vehicle group).
The mark [5] stands for this setting: STC-1 cells treated by 20 μg/mL.
[6] abbreviates: STC-1 cells treated by 50 μg/mL.
[7] abbreviates: STC-1 cells treated by 100 μg/mL.
Setting [8] is: STC-1 cells treated by 200 μg/mL.

Molecules are shown by their SMILES. Where two headings read alike, the source gives them in different places.

Take `CC1=CC(=O)[N-]S(=O)(=O)O1.[K+]` [Acesulfame K, reference compound]: in experiment [1] (STC-1 cells, 10 mM, 1 hour treatment, vehicle = 1), the “Fold (largest fold of GLP-1 secretion vs vehicle group)” value is “↑1.90 fold”.
On to `C=CCN=C=S` [Allyl isothiocyanate], for which the fold induction at 10 µM in experiment [1] (Mus musculus, STC-1 cells, 10 μM, 1 hour treatment, vehicle = 1, read-out: Fold (largest fold of GLP-1 secretion vs vehicle group)) is 4.06. For the same compound, in experiment [1] (STC-1 cells, 1.0 μM, 2.0 μM, 5.0 μM and 10.0 μM, dose-dependent manner), the “secretion of GLP-1 comparing to the vehicle groups (in words)” value is given as “significantly increase the secretion of GLP-1”. Further, in experiment [1] (STC-1 cells, 10 μM, 1 hour treatment, vehicle = 1), the “Fold (largest fold of GLP-1 secretion vs vehicle group)” value is reported as “↑4.06 fold”. Moreover, the “secretion of GLP-1, fold of the vehicle group” value in experiment [2] (0.5 mM of probenecid jointly applied, first of three allyl isothiocyanate concentrations, p<0.001) came to 1.14 fold; in experiment [2] (0.5 mM of probenecid jointly applied, second of three allyl isothiocyanate concentrations, p<0.001), 1.40 fold; in experiment [2] (0.5 mM of probenecid jointly applied, third of three allyl isothiocyanate concentrations, p<0.001), 1.93 fold; in experiment [2] (1.0 mM of probenecid jointly applied, first of three allyl isothiocyanate concentrations, p<0.001), 0.86 fold; in experiment [2] (1.0 mM of probenecid jointly applied, second of three allyl isothiocyanate concentrations, p<0.001), 1.07 fold; in experiment [2] (1.0 mM of probenecid jointly applied, third of three allyl isothiocyanate concentrations, p<0.001), 1.51 fold. The “secretion of GLP-1, fold of the vehicle group” value is 1.44 fold in experiment [2] (allyl isothiocyanate solely applied, first of three concentrations, p<0.05); 2.05 fold in experiment [2] (allyl isothiocyanate solely applied, second of three concentrations, p<0.05); 3.44 fold in experiment [2] (allyl isothiocyanate solely applied, third of three concentrations, p<0.05).
`COc1cc2c(cc1OC)[C@@]13CCN4CC5=CCO[C@H]6CC(=O)N2[C@H]1[C@H]6[C@H]5C[C@H]43` [Brucine, reference compound]: in experiment [1] (Mus musculus, STC-1 cells, 50 μM, 1 hour treatment, vehicle = 1, read-out: Fold (largest fold of GLP-1 secretion vs vehicle group)), the fold induction at 50 µM stood at 1.54.
Turning to `Cn1c(=O)c2c(ncn2C)n(C)c1=O` [Caffeine, reference compound], the fold induction at 1000 µM in experiment [1] (setting [3]) worked out at 1.72.
Regarding `CCN(CC)CCCC(C)Nc1ccnc2cc(Cl)ccc12` (stereo not shown) [Chloroquine, reference compound], in experiment [1] (setting [4]), the fold induction at 5 µM came out at 1.78.
For `CC(C)=C/C=C/[C@@H](C)[C@H]1CC[C@@]2(C)c3ccc4c(c3CC[C@]12C)CC[C@H](O)C4(C)C` [Compound of formula II, 19-nor-cucurbita-5(10),6,8,22(E),24-pentaen-3β-ol], the “secretion of GLP-1, fold comparing to the vehicle group” value in experiment [1] (STC-1 cells treated by 5 μg/mL) was determined as 1.66 fold; in experiment [1] (setting [5]), 2.28 fold; in experiment [1] (setting [6]) it was 4.53 fold; in experiment [1] (setting [7]) it was 6.05 fold; in experiment [1] (setting [8]) it was 6.16 fold.
The like results for `CC(C)=CC(O)C[C@@H](C)[C@H]1CC[C@@]2(C)[C@@H]3C=C[C@@]45OC[C@]3(CC[C@]12C)C4CC[C@H](O)C5(C)C` (stereo partly drawn) [Compound of formula IV, 5β,19-epoxycucurbita-6,24-diene-3β,23ξ-diol] were, in that order, 1.37 fold, 1.49 fold, 1.84 fold, 2.76 fold and 3.68 fold.
Consider `CC[N+](CC)(CC(=O)Nc1c(C)cccc1C)Cc1ccccc1` [Denatonium benzoate, reference compound], for which the fold induction at 2500 µM in experiment [1] (Mus musculus, STC-1 cells, 2.5 mM, 1 hour treatment, vehicle = 1, read-out: Fold (largest fold of GLP-1 secretion vs vehicle group)) came to 2.97.
Turning to `CC1(C)O[C@H]2CC(=O)OC[C@]23[C@H]2CC[C@@]4(C)[C@H](c5ccoc5)OC(=O)[C@H]5O[C@]54[C@]2(C)C(=O)C[C@@H]13` [Limonin, reference compound], in experiment [1] (Mus musculus, STC-1 cells, 200 μM, 1 hour treatment, vehicle = 1, read-out: Fold (largest fold of GLP-1 secretion vs vehicle group)), the fold induction at 200 µM was determined as 1.22.
Take `C=C[C@H]1C[N@@]2CC[C@H]1C[C@H]2[C@H](O)c1ccnc2ccc(OC)cc12` [Quinine, reference compound]: the fold induction at 80 µM in experiment [1] (Mus musculus, STC-1 cells, 80 μM, 1 hour treatment, vehicle = 1, read-out: Fold (largest fold of GLP-1 secretion vs vehicle group)) was 1.9.
In the case of `O=C1NS(=O)(=O)c2ccccc21` [Saccharin, reference compound], in experiment [1] (setting [3]), the fold induction at 1000 µM turned out to be 4.84.
In the case of `O=C1C[C@@H]2OCC=C3CN4CC[C@]56c7ccccc7N1[C@H]5[C@H]2[C@H]3C[C@H]46` [Strychnine, reference compound], the fold induction at 50 µM in experiment [1] (setting [4]) is 1.91.
